{
  "source": "patent US7745572B2",
  "about": "“Peptides effective in the treatment of tumors and other conditions requiring the removal or destruction of cells” (Qualcomm Incorporated, priority 2001, dated 2010)",
  "test_system": "rat prostate",
  "assay": "Intraprostatic infusion in rats, prostate volume and histology at 72 hours",
  "assay_type": "in vivo, Sprague-Dawley rats",
  "conditions": "1 mg/mL in PBS pH 7.4 (1.0 mg/kg)",
  "experimental": "Male Sprague-Dawley rats (300 gram weight range) were anesthetized with ether and given NTP[122] peptide #1 by intraprostatic infusion after open surgical visualization of the prostate. The injections consisted of 300 μl of NTP[122] peptide #1, 1 mg/mL in PBS pH 7.4. (1.0 mg/kg) (n=8), control injections of PBS alone (n=6), and controls with no injection (n=2). Rats were painlessly sacrificed after 72 hours. Prostate glands were dissected, fixed in 10%, buffered formalin for 24 hours, embedded in paraffin, sectioned, and stained with H & E. For each animal the entire prostate gland was embedded and sectioned. All stained sections were examined histologically and measured. For each prostate at least 4 histological sections were examined, and for each histological section two cross-sectional diameters (D) at 90° from each other were measured (total of ≧8 measurements per prostate). […]\nMale Sprague-Dawley rats (300 gram weight range) were anesthetized with ether and given NTP[112] peptide #1 by intraprostatic infusion after open surgical visualization of the prostate. […] All stained sections were examined histologically and measured. For each prostate at least 4 histological sections were examined, and for each histological section two cross-sectional diameters (D) at 90° from each other were measured (total of ≧8 measurements per prostate). […]",
  "data": [
    {"sequence": "IDQQVLSRIKLEIKRCL (listed as Homo sapiens) [NTP[122] peptide #1]", "values": [
      {"measurement": "prostate histology (H & E)", "result": "extensive loss of glandular epithelium, flattening and atrophy"}
    ]},
    {"sequence": "MAQSRLTATSASRVQ (listed as Homo sapiens) [NTP[112] peptide #1]", "values": [
      {"measurement": "prostate histology (H & E)", "result": "significant cell loss and atrophy"}
    ]}
  ]
}
